# Measurements reported in PMC5934995 (Biochemistry, 2017).
# Changes are numbered by the printed parent chain. Like-named read-outs stand apart in the source and are kept apart here. Marks after values point to notes of the source that are not given here.
# B1: S. aureus GS (SA) (Staphylococcus aureus subsp. aureus N315) (protein)
# chain: MPKRTFTKEDIRKFAEEENVRYLRLQFTDILGTIKNVEVPVSQLEKVLDNEMMFDGSSIEGFVRIEESDMYLHPDLDTWVIFPWTAGQGKVARLICDVYKTDGTPFEGDPRANLKRVLKEMEDLGFTDFNLGPEPEFFLFKLDEKGEPTLELNDDGGYFDLAPTDLGENCRRDIVLELEDMGFDIEASHHEVAPGQHEIDFKYADAVTACDNIQTFKLVVKTIARKHNLHATFMPKPLFGVNGSGMHFNVSLFKGKENAFFDPNTEMGLTETAYQFTAGVLKNARGFTAVCNPLVNSYKRLVPGYEAPCYIAWSGKNRSPLIRVPSSRGLSTRIEVRSVDPAANPYMALAAILEAGLDGIKNKLKVPEPVNQNIYEMNREEREAVGIQDLPSTLYTALKAMRENEVIKKALGNHIYNQFINSKSIEWDYYRTQVSEWERDQYMKQY
# B2: recombinant S. aureus GS (Staphylococcus aureus) (protein)
# chain: B1 chain with E9D
# B3: recombinant E. coli GS (Escherichia coli K-12) (protein)
# chain: MSAEHVLTMLNEHEVKFVDLRFTDTKGKEQHVTIPAHQVNAEFFEEGKMFDGSSIGGWKGINESDMVLMPDASTAVIDPFFADSTLIIRCDILEPGTLQGYDRDPRSIAKRAEDYLRSTGIADTVLFGPEPEFFLFDDIRFGSSISGSHVAIDDIEGAWNSSTQYEGGNKGHRPAVKGGYFPVPPVDSAQDIRSEMCLVMEQMGLVVEAHHHEVATAGQNEVATRFNTMTKKADEIQIYKYVVHNVAHRFGKTATFMPKPMFGDNGSGMHCHMSLSKNGVNLFAGDKYAGLSEQALYYIGGVIKHAKAINALANPTTNSYKRLVPGYEAPVMLAYSARNRSASIRIPVVSSPKARRIEVRFPDPAANPYLCFAALLMAGLDGIKNKIHPGEAMDKNLYDLPPEEAKEIPQVAGSLEEALNELDLDREFLKAGGVFTDEAIDAYIALRREEDDRVRMTPHPVEFELYYSV
# B4: E. coli GS (EC) (Escherichia coli K-12) (protein)
# chain: SAEHVLTMLNEHEVKFVDLRFTDTKGKEQHVTIPAHQVNAEFFEEGKMFDGSSIGGWKGINESDMVLMPDASTAVIDPFFADSTLIIRCDILEPGTLQGYDRDPRSIAKRAEDYLRSTGIADTVLFGPEPEFFLFDDIRFGSSISGSHVAIDDIEGAWNSSTQYEGGNKGHRPAVKGGYFPVPPVDSAQDIRSEMCLVMEQMGLVVEAHHHEVATAGQNEVATRFNTMTKKADEIQIYKYVVHNVAHRFGKTATFMPKPMFGDNGSGMHCHMSLSKNGVNLFAGDKYAGLSEQALYYIGGVIKHAKAINALANPTTNSYKRLVPGYEAPVMLAYSARNRSASIRIPVVSSPKARRIEVRFPDPAANPYLCFAALLMAGLDGIKNKIHPGEAMDKNLYDLPPEEAKEIPQVAGSLEEALNELDLDREFLKAGGVFTDEAIDAYIALRREEDDRVRMTPHPVEFELYYSV
# Key:
# [1] = tested on: M. tuberculosis; details: in vivo, cited from earlier work
# [2] = molecular target: recombinant N-His6-tagged GS from E. coli (Escherichia coli, UniProt P0A9C5); test: biochemical; format: biochemical; details: for kinact: pH 7.4
# [3] = molecular target: recombinant N-His6-tagged GS from S. aureus (Staphylococcus aureus, UniProt P0A040); test: biochemical; format: biochemical; details: for kinact: pH 7.4
# [4] = molecular target: recombinant N-His6-tagged GS from Homo sapiens (Homo sapiens, UniProt P15104); test: biochemical; format: biochemical; details: for kinact: pH 7.4
# [5] = tested on: unadenylylated E. coli GS; details: read-out: KI (literature); cited from earlier work
# [6] = tested on: E. coli ATCC 25922; test: Broth microdilution MIC in chemically defined minimal medium; format: cell-based; details: for phenotype induced by treatment (L-Gln dependence of growth): E. coli in minimal medium with or without L-Gln
# [7] = tested on: GS; details: relative to Glufos; cited from earlier work
# [8] = tested on: E. coli ATCC 29522; test: Growth curves; format: cell-based
# [9] = 23 °C, pH 7.2 phosphate buffer; isomerization to TδL-Thr; cited from earlier work
# [10] = tested on: human GS; details: cited from earlier work
# [11] = molecular target: T1, E. coli GS (Escherichia coli, UniProt P0A9C5); format: biochemical; details: apparent, saturating ATP (10 mM) and NH3 (10 mM)
# [12] = tested on: GS isolated from Leishmania donovani; details: read-out: apparent Km for L-Glu (literature); cited from earlier work
# [13] = molecular target: recombinant human GS (Homo sapiens, UniProt P15104); format: biochemical; details: apparent, saturating ATP (10 mM) and NH3 (10 mM)
# [14] = molecular target: T1, E. coli GS; details: cited from earlier work
# [15] = molecular target: recombinant S. aureus GS (Staphylococcus aureus, UniProt P0A040); format: biochemical; details: apparent, saturating ATP (10 mM) and NH3 (10 mM)
# [16] = molecular target: T1, E. coli GS; details: cited from earlier work; remark: listed apart in the source
# [17] = substrate: N[C@@H](CCC(=O)O)C(=O)O; test: purified protein, by the assay type; format: biochemical; details: pH 7.4
# [18] = substrate: Nc1ncnc2c1ncn2[C@@H]1O[C@H](COP(=O)(O)OP(=O)(O)OP(=O)(O)O)[C@@H](O)[C@H]1O; test: purified protein, by the assay type; details: other: apparent; saturating L-Glu (50 mM) and NH3 (10 mM); pH 7.4; 37.0 °C
# [19] = apparent, Kitz–Wilson fit, 37 °C
# [20] = end point, minimal medium, no amino acid supplement, 37 °C, 18–24 h
# [21] = minimal medium supplemented with 5 mM L-Glu
# [22] = read-out: apparent Km for ATP (literature)
# Chain of recombinant N-His6-tagged GS from Homo sapiens (P15104 whole entry): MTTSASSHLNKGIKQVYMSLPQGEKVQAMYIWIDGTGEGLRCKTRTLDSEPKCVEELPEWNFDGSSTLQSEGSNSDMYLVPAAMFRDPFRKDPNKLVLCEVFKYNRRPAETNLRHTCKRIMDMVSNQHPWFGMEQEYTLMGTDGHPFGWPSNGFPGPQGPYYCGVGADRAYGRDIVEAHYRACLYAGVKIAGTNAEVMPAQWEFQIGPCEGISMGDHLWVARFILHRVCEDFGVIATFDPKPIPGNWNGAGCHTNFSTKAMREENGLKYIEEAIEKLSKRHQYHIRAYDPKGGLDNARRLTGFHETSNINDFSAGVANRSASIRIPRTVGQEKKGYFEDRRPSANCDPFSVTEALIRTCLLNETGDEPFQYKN
# Chain of recombinant N-His6-tagged GS from S. aureus (P0A040 whole entry): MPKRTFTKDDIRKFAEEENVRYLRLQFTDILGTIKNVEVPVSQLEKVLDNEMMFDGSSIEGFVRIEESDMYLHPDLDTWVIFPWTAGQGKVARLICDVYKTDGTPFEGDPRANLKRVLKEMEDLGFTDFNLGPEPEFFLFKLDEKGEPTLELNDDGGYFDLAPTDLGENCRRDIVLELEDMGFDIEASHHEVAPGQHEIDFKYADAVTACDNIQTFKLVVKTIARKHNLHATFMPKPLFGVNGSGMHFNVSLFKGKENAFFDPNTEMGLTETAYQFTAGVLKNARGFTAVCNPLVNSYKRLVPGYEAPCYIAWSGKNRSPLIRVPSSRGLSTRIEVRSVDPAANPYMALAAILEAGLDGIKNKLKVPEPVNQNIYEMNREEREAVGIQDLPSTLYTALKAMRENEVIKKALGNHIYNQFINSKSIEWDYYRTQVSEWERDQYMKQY
# Chain of recombinant human GS (P15104 whole entry): as the sequence (P15104 whole entry) above
# Chain of recombinant S. aureus GS (P0A040 whole entry): as the sequence (P0A040 whole entry) above
molecule,measurement,setting,value
"CS(=N)(=O)CC[C@H](N)C(=O)O (some centres unmarked) [MetSox, Methionine sulfoximine]",tolerability,[1]; guinea pig,well tolerated
same,efficacy in guinea pig lung infection model,[1],effective and synergistic with isoniazid
same,difference in inhibitor efficiency (kinact/KI) for E. coli and human GS,[2],250 fold
same,kinact/KI,[2],100 ± 40 min^−1μM^−1 ×10^3
same,kinact,[2],0.4 ± 0.1 min⁻¹
same,kinact/KI,[3]; apparent inhibitor efficiency,28 ± 9 min^−1μM^−1 ×10^3
same,kinact/KI,[4]; apparent inhibitor efficiency,0.4 ± 0.3 min^−1μM^−1 ×10^3
same,kinact,[4]; [19],0.4 ± 0.2 min⁻¹
same,Ki,[5],2 µM
"CP(=O)(O)CCC(N)C(=O)O (centres unmarked) [Glufos, glufosinate]",kinact/KI,[2],11700 M⁻¹ s⁻¹
same,difference in inhibitor efficiency (kinact/KI) for E. coli and human GS,[2]; E. coli GS versus human GS,120 fold
same,kinact,[2],0.7 min⁻¹
same,kinact/KI,[3],500 M⁻¹ s⁻¹
same,kinact,[3],0.00667 s⁻¹
same,kinact/KI,[4],100 M⁻¹ s⁻¹
same,kinact,[4],0.9 min⁻¹
same,Ki,[5],1 µM
"NC[C@H]1O[C@H](O[C@H]2[C@H](O)[C@@H](O[C@H]3O[C@H](CO)[C@@H](O)[C@H](N)[C@H]3O)[C@H](N)C[C@@H]2N)[C@H](O)[C@@H](O)[C@@H]1O [kanamycin, reference compound]",MIC,"[6]; control antibiotic on every plate, minimal medium",0.008 mM
"C[C@H](NC(=O)[C@H](C)NC(=O)[C@@H](N)CCP(C)(=O)[O-])C(=O)O.[Na+] [bialaphos sodium salt, Glufos-L-Ala-L-Ala tripeptide, reference compound]",phenotype induced by treatment (L-Gln dependence of growth),[6],confirmed
CP(=O)(O)C(O)CC(N)C(=O)O (centres unmarked) [γ-hydroxylated variant of Glufos],increase of the rate of GS activation,[7],50%
tabtoxin [TβL-Thr],growth curve with L-Gln supplementation,"[8]; 2 μM, L-Gln supplementation 2.5 mM",matched the control
same,growth with L-Gln supplementation,"[8]; 2 μM, medium supplemented with 0.1 mM L-Gln",recovered to near control levels
same,time after which growth started to recover,"[8]; 2 μM, minimal medium",26 h
same,time for which growth was suppressed,[8]; 100 μM,> 50 h
same,phenotype induced by treatment (L-Gln dependence of growth),[6],glutamine auxotrophy
same,MIC90,[6]; [20],0.0005 mM
same,MIC90,[6]; [21],0.001 mM
same,isomerization half-life,[9],37 h
N[C@@H](CCC(=O)O)C(=O)O [L-Glu],Km,"[10]; read-out: L-Glu Km (literature), recombinant human enzyme expressed in E. coli, colorimetric assay",3.5 ± 0.7 mM
same,kcat (L-Glu),[11],131.7 ± 5 s⁻¹
same,Km,[11]; read-out: Km (L-Glu),7.2 ± 0.8 mM
same,Km,[12],26.3 ± 0.4 mM
same,kcat (L-Glu),[13],85 ± 5 s⁻¹
same,Km,[13]; read-out: Km (L-Glu),37 ± 5 mM
same,Km,[14]; read-out: apparent Km for L-Glu (literature),0.8 to 6.6 mM
same,kcat (L-Glu),[15],23.33 ± 1.67 s⁻¹
same,Km,[15]; read-out: Km (L-Glu),52 ± 7 mM
"CS(=O)(CCC(N)C(=O)O)=NP(=O)(O)O (centres unmarked) [MetSox-Pi, phospho-methionine sulfoximine]",active site occupancy,[16],~ 80%
"C[P@](=O)(CC[C@H](N)C(=O)O)OP(=O)(O)O [Glufos-Pi, phospho-glufosinate]",number of GS active sites occupied (of 12),[16],11
"N[C@@H](CC[C@]1(O)CNC1=O)C(=O)O [TβL, Tabtoxinine-β-lactam]",kinact/KI (inhibitor efficiency),[2],180 ± 70 min^−1μM^−1
same,difference in inhibitor efficiency (kinact/KI) for E. coli and human GS,[2]; E. coli GS versus human GS,90 fold
same,kinact/KI,[2]; apparent inhibitor efficiency,180 ± 70 min^−1μM^−1 ×10^3
same,kinact,[2]; [19],0.3 ± 0.1 min⁻¹
same,recovery of GS activity after dialysis of inhibition complex,[2]; several days of dialysis at 4 °C and 37 °C,could not be recovered
same,kinact/KI (inhibitor efficiency),[3],8 ± 3 min^−1μM^−1
same,kinact/KI,[3]; apparent inhibitor efficiency,8 ± 3 min^−1μM^−1 ×10^3
same,kinact,[3]; [19],0.0067 ± 0.0017 s⁻¹
same,kinact/KI (inhibitor efficiency),[4],2 ± 1 min^−1μM^−1
same,kinact/KI,[4]; apparent inhibitor efficiency,2 ± 1 min^−1μM^−1 ×10^3
same,kinact,[4]; [19],0.3 ± 0.1 min⁻¹
"Nc1ncnc2c1ncn2[C@@H]1O[C@H](COP(=O)(O)OP(=O)(O)OP(=O)(O)O)[C@@H](O)[C@H]1O [ATP, adenosine triphosphate]",Km,[10]; [22],1.8 to 2.8 mM
same,Km,[14]; [22],0.1 to 0.7 mM
"C[C@H](N)C(=O)N[C@@H](C)C(=O)NC(CCP(C)(=O)O)C(=O)O (stereo partly drawn) [AAG, L-Ala-L-Ala-Glufos]",time for which growth was fully suppressed,[8]; 2 μM,> 66 h
same,phenotype induced by treatment (L-Gln dependence of growth),[6],glutamine auxotrophy
same,MIC90,[6]; [20],0.0005 mM
same,MIC90,[6]; [21],0.001 mM
B1,Km,[17],52 ± 7 mM
same,kcat,[17],23.3 ± 1.67 s⁻¹
same,kcat/Km,[17],450 ± 66.7 M⁻¹ s⁻¹
B2,Km,[18],1.8 ± 0.1 mM
same,kcat,[18],12 s⁻¹
same,kcat/Km,[18],6670 M⁻¹ s⁻¹
B3,Km,[18],0.7 ± 0.1 ^a mM
same,kcat,[18],122 s⁻¹
same,kcat/Km,[18],173000 M⁻¹ s⁻¹
B4,Km,[17],7.2 ± 0.8 mM
same,kcat,[17],132 ± 5 s⁻¹
same,kcat/Km,[17],18300 ± 1670 M⁻¹ s⁻¹
